From patent US7880007B2, “Bicyclic substituted phenyl piperidine modulators of muscarinic receptors” (Vertex Pharmaceuticals Incorporated, priority 2004, dated 2011) come the findings set out here.

Format in all cases: cell-based
The target of one experiment is T1, M1 muscarinic receptor (Homo sapiens, UniProt P11229).
T1 construct: expressed in transfected cells; host or cells: CHO (M1-CHO)
T1 sequence (P11229 1-460): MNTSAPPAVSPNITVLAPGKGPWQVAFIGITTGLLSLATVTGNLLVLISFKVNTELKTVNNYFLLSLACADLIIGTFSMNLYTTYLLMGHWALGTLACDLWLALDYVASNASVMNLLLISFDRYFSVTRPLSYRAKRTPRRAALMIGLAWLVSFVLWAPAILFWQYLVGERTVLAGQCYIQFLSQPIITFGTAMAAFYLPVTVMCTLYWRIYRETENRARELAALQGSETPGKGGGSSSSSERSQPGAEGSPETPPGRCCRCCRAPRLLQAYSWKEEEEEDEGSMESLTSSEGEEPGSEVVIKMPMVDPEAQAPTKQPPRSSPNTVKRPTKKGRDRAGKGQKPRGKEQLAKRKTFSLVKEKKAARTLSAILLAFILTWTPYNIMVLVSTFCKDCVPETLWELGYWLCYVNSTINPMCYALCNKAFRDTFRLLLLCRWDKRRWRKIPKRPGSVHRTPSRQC
The experiment in a line: Functional mobilization of intracellular calcium (FLIPR), M1-CHO cells. The note with it: for Emax: 100% efficacy = maximum response obtained with the Carbachol control; for M1 Activity: M1-CHO cells, calcium mobilization (FLIPR). Summed up:
(§1)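 CHO cells expressing human M1–M4 receptors loaded with Fluo-3 AM or Calcium 3 dye (1 mM probenecid, pH 7.4); 0.5% DMSO final. Agonist mode: compound added directly; antagonist mode: 15 min pre-incubation or co-application, then carbachol at EC80. Fluorescence read 60 s on FLIPR; efficacy relative to carbachol maximum.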
A general note: Calcium flux is commonly read through the fluorescence of an indicator in the cells.

The next experiment addresses T2, M3 muscarinic receptor (Homo sapiens, UniProt P20309).
T2 construct: expressed in transfected cells; host or cells: CHO (M3-CHO)
Nature of the experiment: Functional mobilization of intracellular calcium (FLIPR), M3-CHO cells. The note with it: for Emax: 100% efficacy = maximum response obtained with the Carbachol control; for M3 Activity: M3-CHO cells, calcium mobilization (FLIPR). The gist of the method: as §1

The target of a further experiment is T3, M2 muscarinic receptor (Homo sapiens, UniProt P08172).
T3 construct: expressed in transfected cells; host or cells: CHO (M2-CHO)
T3 sequence (P08172 1-466): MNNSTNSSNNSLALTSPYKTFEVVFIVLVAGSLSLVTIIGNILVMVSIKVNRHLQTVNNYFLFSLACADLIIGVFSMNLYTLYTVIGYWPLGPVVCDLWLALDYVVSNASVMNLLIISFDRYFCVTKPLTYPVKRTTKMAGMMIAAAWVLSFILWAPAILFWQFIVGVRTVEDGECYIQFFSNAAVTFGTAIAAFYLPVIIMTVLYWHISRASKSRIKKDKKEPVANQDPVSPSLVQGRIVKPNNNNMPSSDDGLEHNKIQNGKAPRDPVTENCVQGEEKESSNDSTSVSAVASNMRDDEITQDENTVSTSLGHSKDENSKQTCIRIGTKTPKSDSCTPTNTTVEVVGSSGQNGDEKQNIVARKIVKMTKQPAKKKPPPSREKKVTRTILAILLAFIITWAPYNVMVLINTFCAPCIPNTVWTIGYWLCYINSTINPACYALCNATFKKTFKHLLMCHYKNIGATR
Nature of the experiment: Functional mobilization of intracellular calcium (FLIPR), M2-CHO cells. The note with it: for Emax: 100% efficacy = maximum response obtained with the Carbachol control; for M2 Activity: M2-CHO cells, calcium mobilization (FLIPR). The gist of the method:
as §1

A further experiment has as its target T4, M4 muscarinic receptor (Homo sapiens, UniProt P08173).
T4 construct: expressed in transfected cells; host or cells: CHO (M4-CHO)
T4 sequence (P08173 1-479): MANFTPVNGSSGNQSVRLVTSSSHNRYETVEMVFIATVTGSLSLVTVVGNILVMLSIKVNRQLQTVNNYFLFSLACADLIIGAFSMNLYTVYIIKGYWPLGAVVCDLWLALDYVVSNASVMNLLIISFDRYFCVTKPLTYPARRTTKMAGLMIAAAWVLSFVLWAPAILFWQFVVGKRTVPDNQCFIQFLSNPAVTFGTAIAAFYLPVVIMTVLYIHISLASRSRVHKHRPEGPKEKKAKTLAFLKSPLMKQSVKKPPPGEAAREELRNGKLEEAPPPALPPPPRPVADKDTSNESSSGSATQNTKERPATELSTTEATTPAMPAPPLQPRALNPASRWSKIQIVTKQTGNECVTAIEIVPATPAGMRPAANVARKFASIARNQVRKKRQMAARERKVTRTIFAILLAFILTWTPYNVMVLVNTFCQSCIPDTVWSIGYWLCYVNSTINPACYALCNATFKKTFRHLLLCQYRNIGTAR
The experiment in a line: Functional mobilization of intracellular calcium (FLIPR), M4-CHO cells. The note with it: for Emax: 100% efficacy = maximum response obtained with the Carbachol control; for M4 Activity: M4-CHO cells, calcium mobilization (FLIPR). The gist of the method:
as §1

A value given as a limit tells only on which side of the number the result lay.

T2 sequence (P20309 whole entry): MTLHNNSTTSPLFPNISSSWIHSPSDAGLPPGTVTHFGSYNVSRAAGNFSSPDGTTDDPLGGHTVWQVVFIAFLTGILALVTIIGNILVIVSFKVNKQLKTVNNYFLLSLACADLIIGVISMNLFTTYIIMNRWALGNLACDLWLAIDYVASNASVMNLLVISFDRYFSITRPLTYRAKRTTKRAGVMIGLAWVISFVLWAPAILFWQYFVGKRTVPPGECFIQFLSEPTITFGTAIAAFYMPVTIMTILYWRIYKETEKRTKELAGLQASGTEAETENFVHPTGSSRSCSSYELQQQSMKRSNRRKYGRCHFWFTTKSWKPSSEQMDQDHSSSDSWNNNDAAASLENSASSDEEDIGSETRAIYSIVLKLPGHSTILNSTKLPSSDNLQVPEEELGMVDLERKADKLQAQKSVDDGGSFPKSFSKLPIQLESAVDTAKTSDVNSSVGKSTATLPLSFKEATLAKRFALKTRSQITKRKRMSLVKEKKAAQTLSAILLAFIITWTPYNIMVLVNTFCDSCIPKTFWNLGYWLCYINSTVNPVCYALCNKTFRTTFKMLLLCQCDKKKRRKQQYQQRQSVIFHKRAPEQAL

Turning to `COc1ccc(F)cc1C1(F)CCN(C2CCOCC2)CC1` [Compound 314], at M1 muscarinic receptor, the Emax (as a rule, the greatest response seen or fitted, relative to the assay's reference) is below 25% and the “M1 Activity” value is “+ (activity was measured to be greater than 5.0 μM)”. Moreover, on M3 muscarinic receptor, the Emax is below 25% and the “M3 Activity” value is “+ (activity was measured to be greater than 5.0 μM)”. In addition, at M2 muscarinic receptor, the Emax is below 25% and the “M2 Activity” value is recorded as “+ (activity was measured to be greater than 5.0 μM)”. At M4 muscarinic receptor, the Emax lay within 25 to 100% and the “M4 Activity” value is listed as “+ (activity was measured to be greater than 5.0 μM)”.
Consider `CCOC(=O)N1C2CCC1CC(N1CCC(c3cc(-c4ccc(C#N)cc4)ccc3OC)CC1)C2` (stereo not drawn) [Compound 317], for which, on M1 muscarinic receptor, the Emax was in the range of 25 to 100% and the “M1 Activity” value was “++ (activity was measured to be from 1.0 μM to 5.0 μM)”. In addition, at M3 muscarinic receptor, the Emax was below 25% and the “M3 Activity” value is recorded as “+ (activity was measured to be greater than 5.0 μM)”. Further, on M2 muscarinic receptor, the Emax was below 25% and the “M2 Activity” value is “+ (activity was measured to be greater than 5.0 μM)”. Further, at M4 muscarinic receptor, the Emax fell in the range of 25 to 100% and the “M4 Activity” value is recorded as “++ (activity was measured to be from 1.0 μM to 5.0 μM)”.
`COc1ccc(-c2cccc(F)c2F)cc1C1CCN([C@@H]2C[C@H]3CC[C@H]2C3)CC1` [Compound 318]: on M1 muscarinic receptor, the Emax is below 25% and the “M1 Activity” value was “+ (activity was measured to be greater than 5.0 μM)”. Further, at M3 muscarinic receptor, the Emax was below 25% and the “M3 Activity” value is listed as “+ (activity was measured to be greater than 5.0 μM)”. On M2 muscarinic receptor, the Emax is below 25% and the “M2 Activity” value is “+ (activity was measured to be greater than 5.0 μM)”. At M4 muscarinic receptor, the Emax fell in the range of 25 to 100% and the “M4 Activity” value is reported as “+ (activity was measured to be greater than 5.0 μM)”.
As for `COc1ccccc1C1CCN(CC2CCCCC2)CC1` [Compound 320], on M1 muscarinic receptor, the Emax was below 25% and the “M1 Activity” value is recorded as “+ (activity was measured to be greater than 5.0 μM)”. At M3 muscarinic receptor, the Emax is below 25% and the “M3 Activity” value is given as “+ (activity was measured to be greater than 5.0 μM)”. Moreover, at M2 muscarinic receptor, the Emax is below 25% and the “M2 Activity” value was “+ (activity was measured to be greater than 5.0 μM)”. At M4 muscarinic receptor, the Emax fell in the range of 25 to 100% and the “M4 Activity” value is recorded as “++ (activity was measured to be from 1.0 μM to 5.0 μM)”.
Regarding `COc1ccc(C(C)=O)cc1C1CCN([C@H]2C[C@H]3CC[C@H]2C3)CC1` [Compound 321], at M1 muscarinic receptor, the Emax was below 25% and the “M1 Activity” value is on record as “+ (activity was measured to be greater than 5.0 μM)”. On M3 muscarinic receptor, the maximum response (Emax) is below 25% and the “M3 Activity” value is listed as “+ (activity was measured to be greater than 5.0 μM)”. Further, on M2 muscarinic receptor, the Emax is below 25% and the “M2 Activity” value was “+ (activity was measured to be greater than 5.0 μM)”. Besides, on M4 muscarinic receptor, the Emax was below 25% and the “M4 Activity” value is listed as “+ (activity was measured to be greater than 5.0 μM)”.
Regarding `CCOC(=O)N1C2CCC1CC(N1CCC(c3cc(OC)cc(F)c3F)CC1)C2` (stereo not drawn) [Compound 322], on M1 muscarinic receptor, the Emax lay within 25 to 100% and the “M1 Activity” value is on record as “+++ (activity was measured to be less than 1.0 μM)”. For the same compound, on M3 muscarinic receptor, the Emax is below 25% and the “M3 Activity” value is listed as “+ (activity was measured to be greater than 5.0 μM)”. In addition, on M2 muscarinic receptor, the Emax was below 25% and the “M2 Activity” value is recorded as “++ (activity was measured to be from 1.0 μM to 5.0 μM)”. Moreover, on M4 muscarinic receptor, the Emax was 25 to 100% and the “M4 Activity” value is “+++ (activity was measured to be less than 1.0 μM)”.
For the compound `COc1ccc(-c2ccc(C(=O)Nc3nccs3)cc2)cc1C1CCN(C2CCCCC2)CC1` [Compound 323], on M1 muscarinic receptor, the Emax was below 25% and the “M1 Activity” value is given as “+ (activity was measured to be greater than 5.0 μM)”. Besides, on M3 muscarinic receptor, the Emax was below 25% and the “M3 Activity” value is reported as “+ (activity was measured to be greater than 5.0 μM)”. For the same compound, at M2 muscarinic receptor, the Emax is below 25% and the “M2 Activity” value is “+ (activity was measured to be greater than 5.0 μM)”. For the same compound, at M4 muscarinic receptor, the Emax lay in the range of 25 to 100% and the “M4 Activity” value is “++ (activity was measured to be from 1.0 μM to 5.0 μM)”.
In the case of `CCC1(O)CCC(N2CCC(c3cc(Cl)ccc3OC)CC2)CC1` (stereo not drawn) [Compound 324], on M1 muscarinic receptor, the Emax was below 25% and the “M1 Activity” value was “+ (activity was measured to be greater than 5.0 μM)”. Also, at M3 muscarinic receptor, the Emax was below 25% and the “M3 Activity” value is listed as “+ (activity was measured to be greater than 5.0 μM)”. Moreover, on M2 muscarinic receptor, the Emax is below 25% and the “M2 Activity” value is on record as “+ (activity was measured to be greater than 5.0 μM)”. For the same compound, at M4 muscarinic receptor, the Emax fell in the range of 25 to 100% and the “M4 Activity” value was “+++ (activity was measured to be less than 1.0 μM)”.
With `COc1ccc(C(C)(C)C)cc1C1CCN([C@@H]2C[C@@H]3CC[C@H]2C3)CC1` [Compound 325, 1-((1S,2R,4R)-bicyclo[2.2.1]heptan-2-yl)-4-(5-tert-butyl-2-methoxy-phenyl) piperidine], at M1 muscarinic receptor, the Emax fell in the range of 25 to 100% and the “M1 Activity” value is reported as “++ (activity was measured to be from 1.0 μM to 5.0 μM)”. Also, at M3 muscarinic receptor, the Emax was 25 to 100% and the “M3 Activity” value is recorded as “+ (activity was measured to be greater than 5.0 μM)”. Further, at M2 muscarinic receptor, the Emax lay in the range of 25 to 100% and the “M2 Activity” value is given as “+ (activity was measured to be greater than 5.0 μM)”. Further, on M4 muscarinic receptor, the Emax was 25 to 100% and the “M4 Activity” value is reported as “++ (activity was measured to be from 1.0 μM to 5.0 μM)”.
For `COc1ccc(Cl)cc1C1(F)CCN(CC2CC3CCC2C3)CC1` (stereo not drawn) [Compound 326], on M1 muscarinic receptor, the Emax was in the range of 25 to 100% and the “M1 Activity” value is “+ (activity was measured to be greater than 5.0 μM)”. Besides, at M3 muscarinic receptor, the Emax was below 25% and the “M3 Activity” value is on record as “+ (activity was measured to be greater than 5.0 μM)”. In addition, at M2 muscarinic receptor, the Emax was in the range of 25 to 100% and the “M2 Activity” value was “+ (activity was measured to be greater than 5.0 μM)”. For the same compound, at M4 muscarinic receptor, the Emax was in the range of 25 to 100% and the “M4 Activity” value is listed as “++ (activity was measured to be from 1.0 μM to 5.0 μM)”.
Turning to `CCCC1CCC(N2CCC(F)(c3cc(F)ccc3OC)CC2)CC1` (stereo not drawn) [Compound 327], at M1 muscarinic receptor, the maximum response (Emax) fell in the range of 25 to 100% and the “M1 Activity” value is “++ (activity was measured to be from 1.0 μM to 5.0 μM)”. Further, at M3 muscarinic receptor, the Emax was below 25% and the “M3 Activity” value is listed as “+ (activity was measured to be greater than 5.0 μM)”. For the same compound, at M2 muscarinic receptor, the maximal response (Emax) lay in the range of 25 to 100% and the “M2 Activity” value is recorded as “+ (activity was measured to be greater than 5.0 μM)”. For the same compound, at M4 muscarinic receptor, the Emax is 25 to 100% and the “M4 Activity” value is reported as “++ (activity was measured to be from 1.0 μM to 5.0 μM)”.
`CNC(=O)c1ccc(-c2ccc(OC)c(C3CCN(C4C[C@H]5CC[C@H]4C5)CC3)c2)cc1Cl` (stereo partly drawn) [Compound 328]: at M1 muscarinic receptor, the Emax is below 25% and the “M1 Activity” value was “+ (activity was measured to be greater than 5.0 μM)”. Besides, on M3 muscarinic receptor, the Emax is below 25% and the “M3 Activity” value is on record as “+ (activity was measured to be greater than 5.0 μM)”. For the same compound, at M2 muscarinic receptor, the Emax is below 25% and the “M2 Activity” value is “+ (activity was measured to be greater than 5.0 μM)”. Besides, at M4 muscarinic receptor, the Emax lay in the range of 25 to 100% and the “M4 Activity” value was “++ (activity was measured to be from 1.0 μM to 5.0 μM)”.
